US20250230155A1 (Vanderbilt University, priority 2021, published 2025)

Target: T1, human mAChR M4 (Homo sapiens, UniProt P08173)
T1 construct: expressed in transfected cells
T1 sequence (P08173 1-479): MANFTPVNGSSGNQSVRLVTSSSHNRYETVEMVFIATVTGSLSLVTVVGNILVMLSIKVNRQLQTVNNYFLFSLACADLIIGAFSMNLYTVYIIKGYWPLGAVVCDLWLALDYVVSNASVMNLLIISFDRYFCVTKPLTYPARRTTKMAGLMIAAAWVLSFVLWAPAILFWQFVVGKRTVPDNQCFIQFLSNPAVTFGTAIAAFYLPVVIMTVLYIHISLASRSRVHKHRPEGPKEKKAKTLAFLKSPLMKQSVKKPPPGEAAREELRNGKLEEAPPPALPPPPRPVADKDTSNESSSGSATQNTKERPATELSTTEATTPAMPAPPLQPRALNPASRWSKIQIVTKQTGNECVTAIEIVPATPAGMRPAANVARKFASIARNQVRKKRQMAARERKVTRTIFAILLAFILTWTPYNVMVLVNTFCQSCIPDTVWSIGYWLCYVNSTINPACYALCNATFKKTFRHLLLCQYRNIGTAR
Experiment: mAChR M4 cell-based functional assay (calcium mobilization, CHO-K1 hM4-Gqi5 cells)
Settings: for Emax at 30 µM: CHO-K1, % ACh maximum at 30 μM, human M4; for EC50: positive allosteric modulator activity, increase in the EC20 acetylcholine response, CHO-K1 hM4-Gqi5 cells, read-out: Human M4 EC50; for Emax: CHO-K1
Method in brief: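 CHO-K1 cells stably expressing human M4 with chimeric Gqi5, loaded with Fluo-4 AM; compounds given as 11-point 1:3 curves and calcium flux read on FDSS at 1 Hz. Acetylcholine EC20 added at 144 s, EC80 at 230 s; agonist, PAM (EC20 potentiation) and antagonist (EC80 inhibition) EC50/Emax from four-parameter fits.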

Row | Emax at 30 µM | EC50 | SMILES | Emax
1 | 67% | 1630 nM | Cc1cc(C(=O)NCc2ccncc2)cnc1N1CCc2ncccc2C1 [compound 61, 6-(7,8-dihydro-5H-1,6-naphthyridin-6-yl)-5-methyl-N-(4-pyridylmethyl)pyridine-3-carboxamide] | –
2 | 78% | 760 nM | Cc1cc(C(=O)NCc2cncs2)cnc1N1CCc2ncccc2C1 [compound 62, 6-(7,8-dihydro-5H-1,6-naphthyridin-6-yl)-5-methyl-N-(thiazol-5-ylmethyl)pyridine-3-carboxamide] | –
3 | 68% | 2710 nM | Cc1cc(C(=O)NCc2ccnn2C)cnc1N1CCc2ncccc2C1 [compound 63, 6-(7,8-dihydro-5H-1,6-naphthyridin-6-yl)-5-methyl-N-[(2-methylpyrazol-3-yl)methyl]pyridine-3-carboxamide] | –
4 | 59% | ≥ 10000 nM | Cc1cc(C(=O)NC2CC2)cnc1N1CCc2ncccc2C1 [compound 64, N-cyclopropyl-6-(7,8-dihydro-5H-1,6-naphthyridin-6-yl)-5-methyl-pyridine-3-carboxamide] | –
5 | 52% | ≥ 10000 nM | Cc1cc(C(=O)NC2CCCC2)cnc1N1CCc2ncccc2C1 [compound 65, N-cyclopentyl-6-(7,8-dihydro-5H-1,6-naphthyridin-6-yl)-5-methyl-pyridine-3-carboxamide] | –
6 | 47% | ≥ 10000 nM | Cc1cc(C(=O)NC2CCCCC2)cnc1N1CCc2ncccc2C1 [compound 66, N-cyclohexyl-6-(7,8-dihydro-5H-1,6-naphthyridin-6-yl)-5-methyl-pyridine-3-carboxamide] | –
7 | 55% | 1940 nM | Cc1cc(C(=O)NCc2ccc(-n3cccn3)cc2)cnc1N1CCc2ncccc2C1 [compound 67, 6-(7,8-dihydro-5H-1,6-naphthyridin-6-yl)-5-methyl-N-[(4-pyrazol-1-ylphenyl)methyl]pyridine-3-carboxamide] | –
8 | 43% | 3140 nM | Cc1cc(C(=O)NCc2ccc3ncccc3c2)cnc1N1CCc2ncccc2C1 [compound 68, 6-(7,8-dihydro-5H-1,6-naphthyridin-6-yl)-5-methyl-N-(6-quinolylmethyl)pyridine-3-carboxamide] | –
9 | 80% | 2380 nM | Cc1cc(C(=O)NCc2cnn3ccccc23)cnc1N1CCc2ncccc2C1 [compound 69, 6-(7,8-dihydro-5H-1,6-naphthyridin-6-yl)-5-methyl-N-(pyrazolo[1,5-a]pyridin-3-ylmethyl)pyridine-3-carboxamide] | –
10 | 80% | 2930 nM | Cc1cc(C(=O)NCc2ccccc2)cnc1N1CCc2ncccc2C1 [compound 70, N-benzyl-6-(7,8-dihydro-5H-1,6-naphthyridin-6-yl)-5-methyl-pyridine-3-carboxamide] | –
11 | 78% | 233 nM | Cc1cnc(F)cc1-c1cnc2c(c1)CN(c1nnc(C#N)c(C)c1C)CC2 [compound 72, 6-[3-(2-fluoro-5-methyl-4-pyridyl)-7,8-dihydro-5H-1,6-naphthyridin-6-yl]-4,5-dimethyl-pyridazine-3-carbonitrile] | –
12 | 50% | 940 nM | Cc1c(C#N)nnc(N2CCc3ncc(-c4ccnc(Cl)c4F)cc3C2)c1C [compound 73, 6-[3-(2-chloro-3-fluoro-4-pyridyl)-7,8-dihydro-5H-1,6-naphthyridin-6-yl]-4,5-dimethyl-pyridazine-3-carbonitrile] | –
13 | 87% | 368 nM | Cc1c(C#N)nnc(N2CCc3ncc(-c4ccncc4)cc3C2)c1C [compound 74, 4,5-dimethyl-6-[3-(4-pyridyl)-7,8-dihydro-5H-1,6-naphthyridin-6-yl]pyridazine-3-carbonitrile] | –

Further lines, the compound ahead of its results:

Row | SMILES | Emax at 30 µM | EC50 | Emax
14 | Cc1c(C#N)nnc(N2CCc3ncc(Nc4ccccc4C(F)(F)F)cc3C2)c1C [compound 43, 4,5-dimethyl-6-[3-[2-(trifluoromethyl)anilino]-7,8-dihydro-5H-1,6-naphthyridin-6-yl]pyridazine-3-carbonitrile] | 71% | 1160 nM | –
15 | Cc1c(C#N)nnc(N2CCc3ncc(Nc4ccccc4OC(F)(F)F)cc3C2)c1C [compound 44, 4,5-dimethyl-6-[3-[2-(trifluoromethoxy)anilino]-7,8-dihydro-5H-1,6-naphthyridin-6-yl]pyridazine-3-carbonitrile] | 40% | 1880 nM | –
16 | Cc1cc(C#N)cnc1N1CCc2ncccc2C1 [compound 45, 6-(7,8-dihydro-5H-1,6-naphthyridin-6-yl)-5-methyl-pyridine-3-carbonitrile] | – | 1190 nM | 97%
17 | Cc1c(C#N)nnc(N2CCc3ncc(Nc4ccc(Cl)cc4F)cc3C2)c1C [compound 46, 6-[3-(4-chloro-2-fluoro-anilino)-7,8-dihydro-5H-1,6-naphthyridin-6-yl]-4,5-dimethyl-pyridazine-3-carbonitrile] | 34% | 970 nM | –
18 | Cc1c(C#N)nnc(N2CCc3ncc(-c4cccnc4)cc3C2)c1C [compound 47, 4,5-dimethyl-6-[3-(3-pyridyl)-7,8-dihydro-5H-1,6-naphthyridin-6-yl]pyridazine-3-carbonitrile] | 81% | 136 nM | –
19 | Cc1c(C#N)nnc(N2CCc3ncc(-c4ccnnc4)cc3C2)c1C [compound 48, 4,5-dimethyl-6-(3-pyridazin-4-yl-7,8-dihydro-5H-1,6-naphthyridin-6-yl)pyridazine-3-carbonitrile] | 82% | 1810 nM | –
20 | Cc1c(C#N)nnc(N2CCc3ncc(-c4cncnc4)cc3C2)c1C [compound 49, 4,5-dimethyl-6-(3-pyrimidin-5-yl-7,8-dihydro-5H-1,6-naphthyridin-6-yl)pyridazine-3-carbonitrile] | 60% | 868 nM | –
21 | Cc1c(C#N)nnc(N2CCc3ncc(-c4cccnc4C(F)(F)F)cc3C2)c1C [compound 50, 4,5-dimethyl-6-[3-[2-(trifluoromethyl)-3-pyridyl]-7,8-dihydro-5H-1,6-naphthyridin-6-yl]pyridazine-3-carbonitrile] | 68% | 1790 nM | –
22 | Cc1c(C#N)nnc(N2CCc3ncc(-c4cnc(Cl)c(F)c4)cc3C2)c1C [compound 51, 6-[3-(6-chloro-5-fluoro-3-pyridyl)-7,8-dihydro-5H-1,6-naphthyridin-6-yl]-4,5-dimethyl-pyridazine-3-carbonitrile] | 61% | 778 nM | –
23 | COc1cnc(Cl)c(-c2cnc3c(c2)CN(c2nnc(C#N)c(C)c2C)CC3)c1 [compound 52, 6-[3-(2-chloro-5-methoxy-3-pyridyl)-7,8-dihydro-5H-1,6-naphthyridin-6-yl]-4,5-dimethyl-pyridazine-3-carbonitrile] | 64% | 305 nM | –
24 | Cc1c(C#N)nnc(N2CCc3ncc(-c4cc(F)cnc4Cl)cc3C2)c1C [compound 53, 6-[3-(2-chloro-5-fluoro-3-pyridyl)-7,8-dihydro-5H-1,6-naphthyridin-6-yl]-4,5-dimethyl-pyridazine-3-carbonitrile] | 70% | 479 nM | –
25 | Cc1c(C#N)nnc(N2CCc3ncc(-c4cccnc4F)cc3C2)c1C [compound 54, 6-[3-(2-fluoro-3-pyridyl)-7,8-dihydro-5H-1,6-naphthyridin-6-yl]-4,5-dimethyl-pyridazine-3-carbonitrile] | 70% | 391 nM | –
26 | Cc1ccncc1-c1cnc2c(c1)CN(c1nnc(C#N)c(C)c1C)CC2 [compound 55, 4,5-dimethyl-6-[3-(4-methyl-3-pyridyl)-7,8-dihydro-5H-1,6-naphthyridin-6-yl]pyridazine-3-carbonitrile] | 76% | 195 nM | –
27 | Cc1c(C#N)nnc(N2CCc3ncc(-c4ccc(Cl)nc4)cc3C2)c1C [compound 56, 6-[3-(6-chloro-3-pyridyl)-7,8-dihydro-5H-1,6-naphthyridin-6-yl]-4,5-dimethyl-pyridazine-3-carbonitrile] | 53% | 364 nM | –
28 | CNC(=O)c1cnc(N2CCc3ncccc3C2)c(C)c1 [compound 57, 6-(7,8-dihydro-5H-1,6-naphthyridin-6-yl)-N,5-dimethyl-pyridine-3-carboxamide] | – | ≥ 10000 nM | 63%
29 | Cc1cc(C(=O)NC(C)C)cnc1N1CCc2ncccc2C1 [compound 58, 6-(7,8-dihydro-5H-1,6-naphthyridin-6-yl)-N-isopropyl-5-methyl-pyridine-3-carboxamide] | 51% | ≥ 10000 nM | –
30 | Cc1cc(C(=O)NCc2ccccn2)cnc1N1CCc2ncccc2C1 [compound 59, 6-(7,8-dihydro-5H-1,6-naphthyridin-6-yl)-5-methyl-N-(2-pyridylmethyl)pyridine-3-carboxamide] | 68% | 6910 nM | –
31 | Cc1cc(C(=O)NCc2cccnc2)cnc1N1CCc2ncccc2C1 [compound 60, 6-(7,8-dihydro-5H-1,6-naphthyridin-6-yl)-5-methyl-N-(3-pyridylmethyl)pyridine-3-carboxamide] | 61% | 4720 nM | –
32 | COC(=O)c1cnc(N2CCc3ncccc3C2)c(C)c1 [compound 71, methyl 6-(7,8-dihydro-5H-1,6-naphthyridin-6-yl)-5-methyl-pyridine-3-carboxylate] | – | 3380 nM | 102%
